Measurements reported in article PMC5628445, “Four terpene synthases contribute to the generation of chemotypes in tea tree (Melaleuca alternifolia)” (BMC Plant Biology, 2017).

Legend:
Assay in all cases: radiometric assay, pentane extraction and scintillation counting; Lineweaver-Burk
Type in all cases: biochemical, Melaleuca alternifolia
[1] = test system: T1, MaTPS-Tln (terpinolene synthase); settings: 0.25 mM manganese; 30 °C; 15 min; 3H-GPP up to 100 μM; crude E. coli extract; labelled compound
T1 construct: vector pASK-IBA7; expressed in E. coli, crude extract
From the text: radiometric assay, pentane extraction and scintillation counting; Lineweaver-Burk on MaTPS-Tln (terpinolene synthase)

[2] = test system: T2, MaTPS-SaH (sabinene hydrate synthase); settings: 0.25 mM manganese; 30 °C; 15 min; 1–30 μM 3H-GPP; crude E. coli extract; labelled compound
T2 construct: vector pASK-IBA7; expressed in E. coli, crude extract
From the text: radiometric assay, pentane extraction and scintillation counting; Lineweaver-Burk on MaTPS-SaH (sabinene hydrate synthase)

[3] = test system: T3, MaTPS-Cin (1,8-cineole synthase); MaTPS-CinA; settings: 0.25 mM manganese; 30 °C; 10 min; 1–30 μM 3H-GPP; crude E. coli extract; labelled compound
T3 construct: vector pASK-IBA7; expressed in E. coli, crude extract
From the text: radiometric assay, pentane extraction and scintillation counting; Lineweaver-Burk on MaTPS-Cin (1,8-cineole synthase); MaTPS-CinA

SMILES: CC(C)=CCC/C(C)=C/COP(=O)(O)OP(=O)(O)O [GPP]
- Km [1]: 21 ± 3.18 µM
- Km [2]: 11 ± 2 µM
- Km [3]: 31 ± 6.26 µM
